Biological target: SfCht5 (S. frugiperda chitinase 5; rSfCht5) (Spodoptera frugiperda, UniProt A0A8K1Z7B3)
Test: residual endochitinase activity with synthetic substrate
Assay type: biochemical

Chain of SfCht5 (S. frugiperda chitinase 5; rSfCht5) (A0A8K1Z7B3 21-555): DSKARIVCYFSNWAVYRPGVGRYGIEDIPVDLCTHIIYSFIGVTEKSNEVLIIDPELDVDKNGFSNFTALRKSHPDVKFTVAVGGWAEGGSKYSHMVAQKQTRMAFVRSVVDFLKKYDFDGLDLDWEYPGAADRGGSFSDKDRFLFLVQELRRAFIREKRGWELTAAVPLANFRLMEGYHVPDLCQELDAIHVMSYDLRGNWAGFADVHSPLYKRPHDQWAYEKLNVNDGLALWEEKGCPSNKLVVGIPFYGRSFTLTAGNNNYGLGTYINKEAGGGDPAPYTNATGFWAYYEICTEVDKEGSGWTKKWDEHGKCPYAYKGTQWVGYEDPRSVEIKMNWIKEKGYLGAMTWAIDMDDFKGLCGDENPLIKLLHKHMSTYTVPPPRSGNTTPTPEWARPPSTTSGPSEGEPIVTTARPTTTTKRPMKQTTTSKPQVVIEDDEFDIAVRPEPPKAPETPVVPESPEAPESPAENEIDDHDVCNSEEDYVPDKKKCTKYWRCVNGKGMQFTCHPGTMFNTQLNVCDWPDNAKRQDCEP

- IC50: ~158 µM
Structure (SMILES): COc1ccc2cc3[n+](cc2c1OC)CCc1cc2c(cc1-3)OCO2 [berberine, 9,10-Dimethoxy-5,6-dihydro-[1,3] dioxolo[4,5-g]isoquinolino[3,2-a]isoquinolin-7-ium chloride dihydrate]
